Test results reported in ChEMBL document CHEMBL3853351, “Discovery of O6-benzyl glaziovianin A, a potent cytotoxic substance and a potent inhibitor of α,β-tubulin polymerization” (Bioorg Med Chem, 2016).
pIC50, pKd: −log10 of the molar value. Values joined by “and” are separate entries in the source; they are usually repeats but may differ in a detail not shown here. Identical values can stand only once. Active and inactive are the calls of the source. The calls are words filed in the database; no cut-off is given here.

Tests used:
Sus scrofa [1] = species on record: Sus scrofa; test: Inhibition of [3H]colchicine binding to microtubule associated proteins free porcine brain alpha/beta-tubulin assessed as remaining radiolabeled binding at 100 uM measured after 5 mins by centrifugal gel filtration method relative to control
Sus scrofa [2] = species on record: Sus scrofa; test: Inhibition of [3H]vinblastine binding to microtubule associated proteins free porcine brain alpha/beta-tubulin assessed as remaining radiolabeled binding at 100 uM measured after 5 mins by centrifugal gel filtration method relative to control
[3] = Cytotoxicity against human HeLa cells assessed as reduction in cell growth measured after 48 hrs by WST-8 assay; type: functional, cell-based
Sus scrofa [4] = species on record: Sus scrofa; test: Inhibition of microtubule associated proteins free porcine brain alpha/beta-tubulin polymerization at 3 uM measured after 10 mins by thermostatic spectrophotometric method
[5] = Inhibition of microtubule associated proteins free porcine brain alpha/beta-tubulin polymerization measured after 10 mins by thermostatic spectrophotometric method; design: species or system Sus scrofa
[6] = Binding affinity to porcine alpha/beta tubulin assessed as decrease in tryptophan fluorescence measured after 30 mins by tryptophan fluorescence assay; design: species or system Sus scrofa
HeLa [7] = test: Inhibition of bipolar spindle formation in human HeLa cells at 100 and 300 nM measured after 6 hrs by DAPI staining-based fluorescence microscopic analysis; type: functional, cell-based
HeLa [8] = test: Mitotic arrest in human HeLa cells at 100 nM measured after 18 hrs by propidium iodide-staining based flow cytometry; type: functional, cell-based
Homo sapiens = species on record: Homo sapiens; test: Inhibition of alpha-[32P]-GTP binding to human gamma-tubulin at 60 uM preincubated for 15 mins followed by alpha-[32P]-GTP addition measured after 30 mins relative to control
[9] = Inhibition of alpha-[32P]-GTP binding to human gamma-tubulin preincubated for 15 mins followed by alpha-[32P]-GTP addition measured after 30 mins
HeLa [10] = test: Inhibition of bipolar spindle formation in human HeLa cells at 1 uM measured after 6 hrs by DAPI staining-based fluorescence microscopic analysis; type: functional, cell-based

Row | Structure (SMILES) | Activity (Sus scrofa [1]) [%] | Activity (Sus scrofa [2]) [%] | pIC50 [3] | pKd [6] | inhibition (Homo sapiens) [%] | other results
1 | CC[C@]1(O)C[C@@H]2CN(CCc3c([nH]c4ccccc34)[C@@](C(=O)OC)(c3cc4c(cc3OC)N(C)[C@H]3[C@@](O)(C(=O)OC)[C@H](OC(C)=O)[C@]5(CC)C=CCN6CC[C@]43[C@@H]65)C2)C1 | 127 | 5.3 |  |  |  | 
2 | COc1cc2occ(-c3cc(OC)c4c(c3OC)OCO4)c(=O)c2cc1OCc1ccccc1 | 20.3 | 118 | 7.15 | 6.00 | 89.6 | inhibition (Sus scrofa [4]): Active; pIC50 [5]: 5.68; inhibition (HeLa [7]): Active; Activity (HeLa [8]): Active
3 | C#CCOc1cc2occ(-c3cc(OC)c4c(c3OC)OCO4)c(=O)c2cc1OC |  |  |  |  |  | pIC50 [9]: 6.35 and 6.77
4 | COc1cc2c(=O)c(-c3cc(OC)c4c(c3OC)OCO4)coc2cc1OCc1ccccc1 |  |  | 4.89 |  | 93.3 | 
5 | COc1cc2c(c(OC)c1OC)-c1ccc(OC)c(=O)cc1[C@@H](NC(C)=O)CC2 [COLCHICINE] |  |  | 7.70 | 4.58 |  | 
6 | COc1cc2occ(-c3cc(OC)c4c(c3OC)OCO4)c(=O)c2cc1OC [GLAZIOVIANIN A] | 67.8 | 112 | 6.21 | 4.10 |  | inhibition (HeLa [10]): Active
